The values below are quoted from earlier work in paper PMC13029847, “Decoding the Liver–Blood Partitioning of Neonicotinoid Insecticides: Evidence from Paired Human Liver and Blood Biomonitoring” (Toxics, 2026).

For this series the following is noted: ref PubChem Open Chemistry Database.

≈ marks a conversion by molar mass, not a printed value.

For the molecule `CCN(Cc1ccc(Cl)nc1)/C(=C/[N+](=O)[O-])NC` [NIT, nitenpyram], the Solubility is 840 mg/mL (≈ 3100 mM).

`CN1COCN(Cc2cnc(Cl)s2)/C1=N\[N+](=O)[O-]` [THIA, thiamethoxam]: the Solubility is 4.1 mg/mL (≈ 14.1 mM).
